# Experimental data from US20070142395A1, “Treatment of sexual dysfunction with 1-[3-[4-(3-chlorophenyl)-1-piperazinyl]propyl]-5-methoxy-3,4-dihydro-2(1H)-quinolone or salt thereof” (Vela Pharmaceuticals, Inc., priority 2005, published 2007).
# Test system: depressed patients
# Test: Comparison of change in CSFQ score (difference from placebo) with bupropion XL and escitalopram, FIG. 1
# Type: in vivo, Humans
# Conditions: overall and virtually every CSFQ subscale, bupropion XL data from Clayton et al.
# Description: FIG. 1 depicts the difference in the Changes in Sexual Function Questionaire (CSFQ) scores (difference from placebo) from baseline to week 8 for OPC-14523, buproprion XL and escitalopram. The data for bupropion XL and escitalopram were obtained from Clayton et al., 45th Annual NCDEU Meeting, Session 1-21, Boca Raton, Fla., June 6-9, 2005. For the Clayton et al. data, N=273 (placebo), 276 (bupropion XL, 300-400 mg) and 281 (escitalopram, 10-20 mg).
# There is evidence that bupropion reduces the sexual dysfunction in depressed patients, and may be useful as a treatment for sexual dysfunction. Therefore, the data of OPC-14523 effect on sexual dysfunction discussed above were compared to data on the effects of bupropion XL and escitalopram on sexual function reported by Clayton et al. (45th Annual NCDEU Meeting, Boca Raton, Fla. June 6-9, 2005).
# The comparison was based on the change in CSFQ score from baseline to week 8. The changes were assessed by subtracting the placebo score from the treated score at baseline and at week 8, then taking the difference of these two numbers.
smiles,measurement,value
"COc1cccc2c1CCC(=O)N2CCCN1CCN(c2cccc(Cl)c2)CC1 [OPC-14523, 1-[3-[4-(3-chlorophenyl)-1-piperazinyl]propyl]-5-methoxy-3,4-dihydro-2(1H)-quinolone]","change in CSFQ score from baseline to week 8 (difference from placebo), compared to bupropion XL",larger improvement
